Reference: patent US20130102562A1, “INHIBITION OF CATHEPSIN K ACTIVITY AND THE TREATMENT AND PREVENTION OF DISEASE” (SYLVAN PHARMACEUTICALS PTY LTD., priority 2006, published 2013)

T1: Cathepsin K (Homo sapiens, UniProt P43235)
T1 sequence (P43235 115-329): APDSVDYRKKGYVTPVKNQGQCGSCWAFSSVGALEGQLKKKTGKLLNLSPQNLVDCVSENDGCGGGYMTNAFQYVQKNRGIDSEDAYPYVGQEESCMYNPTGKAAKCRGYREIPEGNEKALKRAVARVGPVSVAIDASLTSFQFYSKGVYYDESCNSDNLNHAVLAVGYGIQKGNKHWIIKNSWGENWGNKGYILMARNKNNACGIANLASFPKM

B1: RANKL: Receptor Activator NFKB Ligand; stimulates RAW 264.7 cells to generate bone pit resorptive osteoclasts (protein, UniProt O35235 139-316, looked up)
Tumor necrosis factor ligand …: FSGAPAMMEGSWLDVAQRGKPEAQPFAHLTINAASIPSGSHKVTLSSWYHDRGWAKISNMTLSNGKLRVNQDGFYYLYANICFRHHETSGSVPTDYLQLMVYVVKTSIKIPSSHNLMKGGSTKNWSGNSEFHFYSINVGGFFKLRAGEEISIQVSNPSLLDPDQDATYFGAFKVQDID

Columns and labels:
RAW 264.7 cells = assay: Multinucleated (OCL) cell count in RAW 264.7 cell cultures ± RANKL; type: cell-based, Murine
Description: (iii) RAW 264.7 Cells • Murine macrophage RAW 264.7 cells respond to Receptor Activator NFKB Ligand (RANKL) stimulation to generate bone pit resorptive osteoclasts. • RAW cells were pre-cultured for several days in High-Glucose Dulbecco's Modified Eagles Medium (HG-DMEM) with 10% Fetal Calf Serum […] (0-50 μg/mL). • Cells were incubated at 37° C., 5% CO2 for 4 days. • The number of multinucleated cells present in each was counted by two observers at day 2, 3 and 4. The cells were then harvested for RNA extraction and subsequent RT-PCR.
(iv) H&E Staining • Identical cultures were prepared in petri dishes containing pre-labelled slides and incubated for 4 days, after which slides were carefully rinsed in PBS, immersed in ice-cold acetone and air-dried before freezing. • The slides were then stained with H&E before multinucleated osteoclasts were photographed and counted.

[1] = test system: Cathepsin K gene expression; assay: Cathepsin K gene expression by RAW 264.7 cells ± RANKL (RT-PCR); type: cell-based, Murine
Description: (§1) (iii) RAW 264.7 Cells • Murine macrophage RAW 264.7 cells respond to Receptor Activator NFKB Ligand (RANKL) stimulation to generate bone pit resorptive osteoclasts. • RAW cells were pre-cultured for several days in High-Glucose Dulbecco's Modified Eagles Medium (HG-DMEM) with 10% Fetal Calf Serum (FCS). • Cells were seeded at 250,000 cells/mL in HG-DMEM/10% FCS with/without […] RANKL and increasing doses of PPS (0-50 μg/mL). • Cells were incubated at 37° C., 5% CO2 for 4 days. • The number of multinucleated cells present in each was counted by two observers at day 2, 3 and 4. The cells were then harvested for RNA extraction and subsequent RT-PCR.

MMP-9 gene expression = assay: MMP9 gene expression by RAW 264.7 cells ± RANKL (RT-PCR); type: cell-based, Murine
Description: as §1

Cathepsin K = biological target: T1, Cathepsin K; assay: Cathepsin K bone collagen digests (release of bone collagen, hydroxyproline); type: biochemical; settings: overall conclusion; Cathepsin K mediated release of bone collagen (FIG. 1)
Description: Fresh ovine bone was milled in a stainless steel mortar and pestle in liquid nitrogen. The resultant bone powder was defatted, decalcified and freeze-dried before storage at 4° C.
(ii) Cathepsin K Bone Collagen Digests • 2 mg of insoluble bone collagen powder was digested in 100 mM sodium acetate pH 5.5 containing 2.5 mM dithiothreitol and 2.5 mM EDTA with […] Cathepsin K and increasing doses of PPS. • Digestions were incubated at 37° C. for 24 hours and terminated by the addition of 2 μM E84. Residue and supernatant were hydrolysed separately and the hydroxyproline content measured.

| Molecule | RANKL-induced multinucleated OCL cell formation (RAW 264.7 cells; day 4, 0.5 μg/mL CaXPS vs absence of CaXPS, p<0.05 (FIG. 4B)) | RANKL-induced formation of true multinucleated (>4 nuclei/cell) OCL cells (RAW 264.7 cells; day 4, 10 μg/mL CaXPS (FIG. 4B)) | RANKL-induced formation of true multinucleated (>4 nuclei/cell) OCL cells (RAW 264.7 cells; day 4, 50 μg/mL CaXPS (FIG. 4B)) | number of cells containing 2-3 nuclei as a percentage total cells (RAW 264.7 cells; day 4, 50 μg/mL CaXPS, in the presence of RANKL, p<0.05 (FIG. 4A)) | number of cells containing 2-3 nuclei as a percentage total cells (RAW 264.7 cells; day 4, − vs + RANKL, at most concentrations of CaXPS (FIG. 4A)) | Cathepsin K gene expression ([1]; day 4, increasing concentrations of CaXPS in the absence of RANKL (FIG. 5A)) | Cathepsin K expression ([1]; day 4, presence of RANKL, lowest dose of CaXPS, p<0.05 (FIG. 5A)) | MMP-9 gene expression (MMP-9 gene expression; day 4, increasing concentrations of CaXPS in the absence of RANKL (FIG. 5B)) | MMP-9 expression (MMP-9 gene expression; day 4, presence of RANKL, 5 μg/mL CaXPS, p<0.05 (FIG. 5B)) | Cathepsin K activity (Cathepsin K) | development of multinucleated cells (RAW 264.7 cells; RANKL 20 ng/mL added to RAW cells, by day 3, p<0.05 (FIGS. 2 and 3)) | expression of Cathepsin K by RAW cells ([1]; RANKL alone vs no RANKL (FIG. 5A)) | expression of MMP-9 by RAW cells (MMP-9 gene expression; RANKL alone vs no RANKL (FIG. 5B)) |
| --- | --- | --- | --- | --- | --- | --- | --- | --- | --- | --- | --- | --- | --- |
| calcium xylopyranose polysulfate [CaXPS] | significantly more | inhibited | inhibited | significantly more 2-3 nucleated cells | still significantly increased | no marked effect | significant increase | no marked effect | decrease | down regulation |  |  |  |
| B1 |  |  |  |  |  |  |  |  |  |  | significant development of multinucleated cells | increased | increased |
